Our source for the IC50 and melting point values is patent US8198456B2, “Dihydropyridine derivatives as useful as protein kinase inhibitors” (Bayer Intellectual Property GmbH, priority 2006, dated 2012).

The target in data set [1] is T1, recombinant human c-MET kinase enzyme domain (Homo sapiens, UniProt P08581).
T1 construct: Recombinant c-Met kinase domain (amino acids 960-1390); His (N); made in house; host or cells: baculovirus expression system (insect cells; SF21 is named only for the alternative format)
In words: c-MET receptor tyrosine kinase Homogeneous Time Resolved Fluorescence assay (HTRF). In kind it is biochemical. The following applies: Biological Example 1 and/or Biological Example 2. A digest of the protocol:
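His-tagged c-Met kinase domain (aa 960-1390, baculovirus) phosphorylated biotinylated poly-Glu-Tyr (37 nM) with 20 μM ATP in HEPES pH 7.4, Mg/Mn, DTT, 1% DMSO, 20 min at ambient temperature, EDTA-stopped. HTRF read (PT66-Eu/streptavidin-XL665, 665/620 nm ratio) after 4 h; IC50 from eight 1:3.16 dilutions.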

T1 sequence (P08581 960-1390): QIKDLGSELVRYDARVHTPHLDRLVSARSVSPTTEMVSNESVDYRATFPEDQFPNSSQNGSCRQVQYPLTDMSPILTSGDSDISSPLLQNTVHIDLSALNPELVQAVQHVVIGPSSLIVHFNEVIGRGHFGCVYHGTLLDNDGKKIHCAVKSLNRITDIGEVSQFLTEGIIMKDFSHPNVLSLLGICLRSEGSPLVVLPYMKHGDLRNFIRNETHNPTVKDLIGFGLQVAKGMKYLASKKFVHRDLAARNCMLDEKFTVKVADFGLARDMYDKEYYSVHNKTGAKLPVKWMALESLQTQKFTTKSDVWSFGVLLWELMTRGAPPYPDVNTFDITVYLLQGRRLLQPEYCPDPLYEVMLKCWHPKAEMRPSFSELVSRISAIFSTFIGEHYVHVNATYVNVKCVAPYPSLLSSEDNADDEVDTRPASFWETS

One may read the IC50 as the concentration at which inhibition is half-maximal. As a reminder, the melting point is the temperature, or range, at which the solid turns liquid. Turning to `CCNc1n[nH]c2ccc(C3C(C#N)=C(C)NC(C)=C3C#N)cc12` [compound 121, 4-[3-(ethylamino)-1H-indazol-5-yl]-1,4-dihydro-2,6-dimethyl-3,5-pyridinedicarbonitrile], the melting point was found to be 247.6 °C. Further, in data set [1], the IC50 was < 100 nM.
